Experimental data taken from ChEMBL document CHEMBL3885861, “Open TG-GATES”.

Organism: Rattus norvegicus
Experiment: Open TG-GATES - Regimen: Daily Repeat
Type: toxicity, organism-based, Sprague-Dawley
Parameters: regimen Daily Repeat, gender Male, age 6 weeks
Conditions: in vivo, po, 60 mg/kg, route gavage, dose level Low; for APTT / Bas / Eos / Fbg / Hb / Ht / Lym / MCHC / MCV / Mono / Neu / PT / Plat / RBC / Ret / WBC: tissue Blood; for KIDNEY_L / KIDNEY_R / KIDNEY_TOTAL: tissue Kidney; for LIVER: tissue Liver; for ALP / ALT / AST / CRE / DBIL / GLC / IP / K / LDH / Na / PL / RALB / TBIL / TC / TG / TP / gamma-GTP: tissue Plasma

O=C1NC(=O)C(c2ccccc2)(c2ccccc2)N1 [PHENYTOIN]
TERMINAL_BW (72 h, time 3 day): 222.2 g | APTT (72 h, time 3 day): 21.7 s | Bas (72 h, time 3 day): 0% | Eos (72 h, time 3 day): 0.6% | Fbg (72 h, time 3 day): 311.4 mg/dL | Hb (72 h, time 3 day): 13 g/dL | Ht (72 h, time 3 day): 38.1% | Lym (72 h, time 3 day): 81.6% | MCHC (72 h, time 3 day): 34.1% | MCV (72 h, time 3 day): 65.7 fL | Mono (72 h, time 3 day): 1.4% | Neu (72 h, time 3 day): 15.2% | PT (72 h, time 3 day): 15.7 s | Plat (72 h, time 3 day): 130.4 x10_4/uL | RBC (72 h, time 3 day): 581.8 x10_4/ul | Ret (72 h, time 3 day): 7.7% | WBC (72 h, time 3 day): 82.9 x10_2/uL | KIDNEY_L (72 h, time 3 day): 1 g | KIDNEY_R (72 h, time 3 day): 1 g | KIDNEY_TOTAL (72 h, time 3 day): 2 g | LIVER (72 h, time 3 day): 10.7 g | ALP (72 h, time 3 day): 1528 IU/L | ALT (72 h, time 3 day): 38 IU/L | AST (72 h, time 3 day): 65.8 IU/L | CRE (72 h, time 3 day): 0.1 mg/dL | DBIL (72 h, time 3 day): 0 mg/dL | GLC (72 h, time 3 day): 185.4 mg/dL | IP (72 h, time 3 day): 7.5 mg/dL | K (72 h, time 3 day): 4.3 meq/L | LDH (72 h, time 3 day): 213.4 IU/L | Na (72 h, time 3 day): 143 meq/L | PL (72 h, time 3 day): 156 mg/dL | RALB (72 h, time 3 day): 3.1 g/dL | TBIL (72 h, time 3 day): 0.01 mg/dL | TC (72 h, time 3 day): 81.4 mg/dL | TG (72 h, time 3 day): 104.2 mg/dL | TP (72 h, time 3 day): 5.8 g/dL | gamma-GTP (72 h, time 3 day): 1.4 IU/L | TERMINAL_BW ([…], time 7 day): 250.5 g | TERMINAL_BW ([…], time 14 day): 308.9 g | TERMINAL_BW ([…], time 28 day): 366.2 g | APTT ([…], time 7 day): 22.8 s | Bas ([…], time 7 day): 0% | Eos ([…], time 7 day): 1% | Fbg ([…], time 7 day): 314.8 mg/dL | Hb ([…], time 7 day): 13.7 g/dL | Ht ([…], time 7 day): 40.7% | Lym ([…], time 7 day): 80% | MCHC ([…], time 7 day): 33.6% | MCV ([…], time 7 day): 62.6 fL | Mono ([…], time 7 day): 2.6% | Neu ([…], time 7 day): 15.8% | PT ([…], time 7 day): 15.6 s | Plat ([…], time 7 day): 124.8 x10_4/uL | RBC ([…], time 7 day): 650.8 x10_4/ul | Ret ([…], time 7 day): 6.1% | WBC ([…], time 7 day): 113.1 x10_2/uL | APTT ([…], time 14 day): 22.6 s | Bas ([…], time 14 day): 0% | Eos ([…], time 14 day): 0.8% | Fbg ([…], time 14 day): 277.4 mg/dL | Hb ([…], time 14 day): 13.9 g/dL | Ht ([…], time 14 day): 40.8% | Lym ([…], time 14 day): 80.6% | MCHC ([…], time 14 day): 34.2% | MCV ([…], time 14 day): 60.8 fL | Mono ([…], time 14 day): 2.2% | Neu ([…], time 14 day): 15.6% | PT ([…], time 14 day): 16.2 s | Plat ([…], time 14 day): 104.4 x10_4/uL | RBC ([…], time 14 day): 670.4 x10_4/ul | Ret ([…], time 14 day): 5% | WBC ([…], time 14 day): 136.7 x10_2/uL | APTT ([…], time 28 day): 22.8 s | Bas ([…], time 28 day): 0% | Eos ([…], time 28 day): 0.8% | Fbg ([…], time 28 day): 298.8 mg/dL | Hb ([…], time 28 day): 15.5 g/dL | Ht ([…], time 28 day): 43.8% | Lym ([…], time 28 day): 86.8% | MCHC ([…], time 28 day): 35.5% | MCV ([…], time 28 day): 57.3 fL | Mono ([…], time 28 day): 1.8% | Neu ([…], time 28 day): 10% | PT ([…], time 28 day): 16 s | Plat ([…], time 28 day): 107 x10_4/uL | RBC ([…], time 28 day): 764.6 x10_4/ul | Ret ([…], time 28 day): 2.6% | WBC ([…], time 28 day): 141.5 x10_2/uL | KIDNEY_L ([…], time 7 day): 1.1 g | KIDNEY_R ([…], time 7 day): 1.1 g | KIDNEY_TOTAL ([…], time 7 day): 2.1 g | KIDNEY_L ([…], time 14 day): 1.3 g | KIDNEY_R ([…], time 14 day): 1.3 g | KIDNEY_TOTAL ([…], time 14 day): 2.6 g | KIDNEY_L ([…], time 28 day): 1.3 g | KIDNEY_R ([…], time 28 day): 1.3 g | KIDNEY_TOTAL ([…], time 28 day): 2.6 g | LIVER ([…], time 7 day): 11.8 g | LIVER ([…], time 14 day): 14.1 g | LIVER ([…], time 28 day): 14.2 g | ALP ([…], time 7 day): 1555.8 IU/L | ALT ([…], time 7 day): 40.4 IU/L | AST ([…], time 7 day): 64.8 IU/L | CRE ([…], time 7 day): 0.2 mg/dL | DBIL ([…], time 7 day): 0 mg/dL | GLC ([…], time 7 day): 184.6 mg/dL | IP ([…], time 7 day): 7 mg/dL | K ([…], time 7 day): 4.4 meq/L | LDH ([…], time 7 day): 169.2 IU/L | Na ([…], time 7 day): 141.8 meq/L | PL ([…], time 7 day): 148.2 mg/dL | RALB ([…], time 7 day): 3 g/dL | TBIL ([…], time 7 day): 0.034 mg/dL | TC ([…], time 7 day): 73.6 mg/dL | TG ([…], time 7 day): 108 mg/dL | TP ([…], time 7 day): 5.6 g/dL | gamma-GTP ([…], time 7 day): 1.2 IU/L | ALP ([…], time 14 day): 1361 IU/L | ALT ([…], time 14 day): 40.4 IU/L | AST ([…], time 14 day): 63.2 IU/L | CRE ([…], time 14 day): 0.2 mg/dL | DBIL ([…], time 14 day): 0.008 mg/dL | GLC ([…], time 14 day): 186.8 mg/dL | IP ([…], time 14 day): 7.6 mg/dL | K ([…], time 14 day): 4.2 meq/L | LDH ([…], time 14 day): 176.6 IU/L | Na ([…], time 14 day): 142.6 meq/L | PL ([…], time 14 day): 152.4 mg/dL | RALB ([…], time 14 day): 3.1 g/dL | TBIL ([…], time 14 day): 0.012 mg/dL | TC ([…], time 14 day): 74.2 mg/dL | TG ([…], time 14 day): 129.6 mg/dL | TP ([…], time 14 day): 5.5 g/dL | gamma-GTP ([…], time 14 day): 1.2 IU/L | ALP ([…], time 28 day): 1279.2 IU/L | ALT ([…], time 28 day): 41 IU/L | AST ([…], time 28 day): 64.4 IU/L | CRE ([…], time 28 day): 0.2 mg/dL | DBIL ([…], time 28 day): 0.004 mg/dL | GLC ([…], time 28 day): 181.2 mg/dL | IP ([…], time 28 day): 5.8 mg/dL | K ([…], time 28 day): 3.9 meq/L | LDH ([…], time 28 day): 231.2 IU/L | Na ([…], time 28 day): 143.4 meq/L | PL ([…], time 28 day): 131.6 mg/dL | RALB ([…], time 28 day): 3.1 g/dL | TBIL ([…], time 28 day): 0.028 mg/dL | TC ([…], time 28 day): 66.6 mg/dL | TG ([…], time 28 day): 107.4 mg/dL | TP ([…], time 28 day): 6.1 g/dL | gamma-GTP ([…], time 28 day): 1.4 IU/L
